Converted amounts (≈) assume the structure as drawn.

The test system of one series is SMMC-7721. Put plainly: MTT cytotoxicity assay, SMMC-7721 cells. In kind it is cell-based. The method, then: (§1) Conjugate cytotoxicity was assessed using an MTT assay. Cells (SMMC-7721, L-02, etc.) were seeded at a density of 1×10^4 cells/well […] to the assay. At the start of the experiment the culture medium was removed and the conjugate (0-2 mg/lnl in complete medium) was added (100 ul). After 4 h, MTT (20 ul; 5 mg/ml in PBS) was added and the plates re-incubated for a further 5 h. the formazan crystals were dissolved in DMSO and the absorbance read at 550 nm using a microtitre plate reader. The results were expressed as viability(%) relative to a control containing no conjugate.
(Tetrazolium assays rely on reduction of a dye to a coloured formazan, in cell work by metabolically active cells.)

The next series relates to L-02. Put plainly: MTT cytotoxicity assay, L-02 cells. Conditions: concentration of MMC or conjugate up to 8 ugMMC/ml. In kind it is cell-based. The method, then:
as §1

Procedure for Caco-2 cell monolayers: The transcellular transport of conjugate was evaluated using Caco-2 cell monolayers. Caco-2 cells were maintained in plastic culture flasks. These stock cells were subcultivated before reaching confluence. The medium consisted of Dulbecco's Modified Eagle's Medium supplemented with 10% fetal bovine serum, 1% nonessential amino acid, 2 mM L-glutamine and 100 IU/mL penicillin-10 ug/mL streptomycin. The monolayer cultures were grown in an atmosphere of 5% CO2-95% O2 at 37° C. The cells were given fresh growth medium every 2 days. When the Caco-2 cells had reached confluence, they were harvested with 0.25 mM trypsin and 0.2% EDTA (0.5-1 min at 37° C.), resuspended, and seeded into a new flask, Caco-2 cells were used between passages 45 and 60. For the transport study, Caco-2 cells were seeded at a cell density of 8×10^4 cells/cm^2 on 6-well (3-mm pores, 4.71-cm^2 growth area) Transwell™. The cell monolayers were fed a fresh growth medium every 2 days and were used at 16 to 21 days for the transport experiments. TEER was used to monitor the integrity of the monolayers. Monolayers with TEER above 350/cm^2 (after subtracting the back group value of the transwell) were used in the study.

A word on the IC50: it is the concentration at which inhibition is half-maximal. A high value points to a need for much substance. As for `CO[C@@]12[C@H](COC(N)=O)C3=C(C(=O)C(C)=C(N)C3=O)N1C[C@@H]1N[C@@H]12` [MMC, mitomycinC, reference compound], the IC50 in the series on SMMC-7721 (Homo sapiens, SMMC-7721, viability relative to control containing no conjugate) stood at 1.6 µg/mL (≈ 4.79 µM). The “viability of L-02” value with L-02 is listed as “unchanged”.
For the molecule Fe-transferrin-MMC, in the series with SMMC-7721 (viability relative to control containing no conjugate), the “IC50 to SMMC-7721” value came out at 0.5 ug MMC/ml. The “viability of L-02” value in the series with L-02 is reported as “unchanged”. The “transcellular transport by caco-2 cells (transport fraction)” value in the series with Caco-2 cell monolayers is reported as 20 % of total drug.

Values taken from patent publication US20080306248A1, “Conjugate of Biomacromolecule with Bioreductive and Preparative Method Thereof” (priority 2005, published 2008).
